Source: ChEMBL document CHEMBL1201862, “PubChem BioAssay data set” (2004)
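Compound exposure: 48 hours, 5 concentrations, 96-well plates. GI50 marks 50% less growth.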 Activity calls are given as the source filed them. No stated cut-off is given here; in the data, active = GI50 up to about 1.1 µM and inactive = higher.

Columns and labels:
Assay in all cases: NCI-60 cell line screen, 48 h
UACC-257 = system: UACC-257
NCI-H460 = system: NCI-H460
NCI/ADR-RES = system: NCI/ADR-RES
OVCAR-8 = system: OVCAR-8
HL-60 = system: HL-60
NCI-H226 = system: NCI-H226
BT-549 = system: BT-549
HCC 2998 = system: HCC 2998
IGROV-1 = system: IGROV-1
MDA-N = system: MDA-N
CAKI-1 = system: CAKI-1
COLO 205 = system: COLO 205
LOX IMVI = system: LOX IMVI
MDA-MB-435 = system: MDA-MB-435
RXF 393 = system: RXF 393
SK-MEL-5 = system: SK-MEL-5
EKVX = system: EKVX
HOP-62 = system: HOP-62
DU-145 = system: DU-145
SF-295 = system: SF-295

Structure (SMILES) | GI50 (UACC-257) | GI50 (NCI-H460) | GI50 (NCI/ADR-RES) | GI50 (OVCAR-8) | GI50 (HL-60) | GI50 (NCI-H226) | GI50 (BT-549) | GI50 (HCC 2998) | GI50 (IGROV-1) | GI50 (MDA-N) | GI50 (CAKI-1) | GI50 (COLO 205) | GI50 (LOX IMVI) | GI50 (MDA-MB-435) | GI50 (RXF 393) | GI50 (SK-MEL-5) | GI50 (EKVX) | GI50 (HOP-62) | GI50 (DU-145) | GI50 (SF-295)
N#Cc1sc2c(c1OC(=O)c1ccco1)c(=O)n(-c1ccccc1)c(=S)n2-c1ccccc1 | 62.2 µM (inactive) | 32 µM (inactive) | 26.6 µM (inactive) | 29.9 µM (inactive) | 67.5 µM (inactive) | 34.3 µM (inactive) | 37.6 µM (inactive) | 55.7 µM (inactive) | > 10 µM (inactive) | 20.8 µM (inactive) | 39.7 µM (inactive) | 22.8 µM (inactive) | 16.2 µM (inactive) | 27.7 µM (inactive) | 23.3 µM (inactive) | 17.6 µM (inactive) | 52.6 µM (inactive) | 25.9 µM (inactive) | 48.5 µM (inactive) | 26.7 µM (inactive)
Clc1nc(Cl)c(Cl)c(Cl)n1 | 16.3 µM (inactive) | 21.6 µM (inactive) | 23.4 µM (inactive) | 26.4 µM (inactive) | 13.5 µM (inactive) | 20.7 µM (inactive) | 20.6 µM (inactive) | 18.7 µM (inactive) | 19.9 µM (inactive) | 19.1 µM (inactive) | 17.8 µM (inactive) | 8.57 µM (inactive) | 11.3 µM (inactive) | 21.8 µM (inactive) | 18.3 µM (inactive) | 17.6 µM (inactive) | 32.1 µM (inactive) | 19.6 µM (inactive) | 16.7 µM (inactive) | 19.3 µM (inactive)
CCOC(=O)C12CC(C)=C(C)CC1CCCc1ccccc12 (stereo not given) | 17.6 µM (inactive) | 16.4 µM (inactive) | 39.4 µM (inactive) | 28.9 µM (inactive) | 11.2 µM (inactive) | 24.5 µM (inactive) | 43.3 µM (inactive) | 14.2 µM (inactive) | 26.4 µM (inactive) | 26 µM (inactive) | 31.1 µM (inactive) | 16.6 µM (inactive) | 17.1 µM (inactive) | 27.2 µM (inactive) | 18.7 µM (inactive) | 21.5 µM (inactive) | 21.1 µM (inactive) | 38.3 µM (inactive) | 34 µM (inactive) | 25.1 µM (inactive)
Nc1c(-c2cccc3ccccc23)c2ccc([N+](=O)[O-])cc2c(=O)n1-c1nc2ccccc2s1 | 3.41 µM (inactive) | 3.1 µM (inactive) | 2.26 µM (inactive) | 2.16 µM (inactive) | 2.18 µM (inactive) | 2.41 µM (inactive) | 14.3 µM (inactive) | 7.14 µM (inactive) | 3.41 µM (inactive) | 7.13 µM (inactive) | 5.15 µM (inactive) | 18.1 µM (inactive) | 4.4 µM (inactive) | 9.38 µM (inactive) | 6.04 µM (inactive) | 6.73 µM (inactive) | 1.94 µM (inactive) | 7.21 µM (inactive) | 7.57 µM (inactive) | 5.53 µM (inactive)
CCN(CC)CCNc1ccc2ncn3c4ccc(O)cc4c(=O)c1c23 | 6.62 µM (inactive) | 0.0291 µM (active) | 2.81 µM (inactive) | 0.561 µM (active) | 0.131 µM (active) | 0.04 µM (active) | 12 µM (inactive) | 2.51 µM (inactive) | 0.479 µM (active) | 4.19 µM (inactive) | 0.0649 µM (active) | 0.769 µM (active) | 0.327 µM (active) | 3.67 µM (inactive) | 0.178 µM (active) | 0.289 µM (active) | 7.28 µM (inactive) | 0.141 µM (active) | 0.315 µM (active) | 0.216 µM (active)
COC(=O)C(CCC1CC(OC)N(C(=O)OCc2ccccc2)C1)/N=C/c1ccccc1 (stereo not given) | 31.2 µM (inactive) | 78.3 µM (inactive) | > 100 µM (inactive) | 96.2 µM (inactive) | 47.8 µM (inactive) | > 100 µM (inactive) | > 100 µM (inactive) | 31.6 µM (inactive) | 87.9 µM (inactive) | 48 µM (inactive) | > 100 µM (inactive) | 29.3 µM (inactive) | > 100 µM (inactive) | 53.8 µM (inactive) | > 100 µM (inactive) | 29.2 µM (inactive) | 55.2 µM (inactive) | > 100 µM (inactive) | > 100 µM (inactive) | > 100 µM (inactive)
N/C(=N\c1ccc(Cl)cc1)c1ccccc1N | > 100 µM (inactive) | > 100 µM (inactive) | > 100 µM (inactive) | > 100 µM (inactive) | > 100 µM (inactive) | > 100 µM (inactive) | > 100 µM (inactive) | > 100 µM (inactive) | > 100 µM (inactive) | > 100 µM (inactive) | > 100 µM (inactive) | > 100 µM (inactive) | > 100 µM (inactive) | > 100 µM (inactive) | > 100 µM (inactive) | > 100 µM (inactive) | > 100 µM (inactive) | > 100 µM (inactive) | > 100 µM (inactive) | > 100 µM (inactive)
